Measured values as given in patent publication US20050256184A1, “1,2,4-Trioxanes and 1,2,4-trioxepanes” (priority 2004, published 2005).
Like-named read-outs stand apart in the source and are kept apart here.

How the values were obtained:
[1] = test system: K1 Plasmodium falciparum; experiment: In vitro antimalarial activity, 48-h [3H]-hypoxanthine incorporation sensitivity assay; format: cell-based
Description: Antimalarial activity. The K1 strain of Plasmodium falciparum was used in this study. This strain is known to be CQ resistant Parasites were maintained in continuous culture using the method of Jensen and Trager (Trager, W; Jenson, J. B. Human Malaria Parasites in Continuous Culture. Science, 1976, 193, 673-675). Cultures were grown in flasks containing human erythrocytes (2-5%) with parasitemia in the range of 1% to 10% suspended in RPMI 1640 medium supplemented with 25 mM HEPES and 32 mM NaHCO3, and 10% human serum (complete medium). Cultures were gassed with a mixture of 3% O2, 4% CO2 and 93% N2. Antimalarial activity was assessed with an adaption of the 48-h sensitivity assay of Desjardins et al. using [^3H]-hypoxanthine incorporation as an assessment of parasite growth (Desjardins, R. E.; Canfield, C. J.; Haynes, J. D.; Chulay, J. D. Quantitative Assessment of Antimalarial activity in vitro by Semi-automated Microdilution Technique. Antimicrob. Agents Chemother., 1979, 16, 710-718). Stock drug solutions were prepared in 100% dimethylsulphoxide (DMSO) and diluted to the appropriate concentration using complete medium. Assays were performed in sterile 96-well microtitre plates, each plate contained 200 μl of parasite culture (2% parasitemia, 0.5% haematocrit) with or without 10 μl drug dilutions. Each drug was tested in triplicate and parasite growth compared to control wells (which consituted 100% parasite growth). After 24-h incubation at 37° C., 0.5 μCi hypoxanthine was added to each well. Cultures were incubated for a further 24 h before they were harvested onto filter-mats, dried for 1 h at 55° C. and counted using a Wallac 1450 Microbeta Trilux Liquid scintillation and luminescence counter. IC50 values were calculated by interpolation of the probit transformation of the log dose-response curve.

[2] = Erythrocyte, K1 strain (chloroquine resistant) of Plasmodium falciparum in human erythrocytes, triplicate, read-out: IC50

Row | Compound | melting point [°C] | IC50 [1, 2] [nM] | IC50 ([1]; Plasmodium falciparum, K1, Erythrocyte) [nM]
1 | CC1(CSc2ccccc2)COC2(CCCCC2)OO1 (stereo not drawn) [4c, 3-Methyl-3-phenylsulfanylmethyl-1,2,5-trioxa-spiro[5.5]undecane] | 45 to 46 | – | –
2 | CC1(CSc2ccc(Cl)cc2)COC2(CCCC2)OO1 (stereo not drawn) [4d, 8-(4-Chloro-phenylsulfanylmethyl)-8-methyl-6,7,10 trioxa-spiro[4.5]decane] | 69.8 to 70 | – | –
3 | CC1(CS(=O)(=O)c2ccccc2)COC2(CCC2)OO1 (stereo not drawn) [8e, 7-Benzenesulfonylmethyl-7-methyl-5,6,9-trioxa-spiro[3.5]nonane] | 96 to 97 | – | –
4 | CC1(CS(=O)(=O)c2ccccc2)COC2(CCCCCCCCCCC2)OO1 (stereo not drawn) [8k, 3-Benzenesulfonylmethyl-3-methyl-1,2,5-trioxa-spiro[5.11]heptadecane] | 123 to 124 | – | –
5 | CC1(CSc2ccccc2)COC2(CCCCCCCCCCC2)OO1 (stereo not drawn) [4j, 3-Methyl-3-phenylsulfanylmethyl-1,2,5-trioxa-spiro[5.11]heptadecane] | 89 | 135 | –
6 | CC1(CS(=O)(=O)c2ccccc2)COC2(OO1)C1CC3CC(C1)CC2C3 (stereo not drawn) [8f, Adamantyl sulfone trioxane] | 126 to 127 | 329 | –
7 | CC1(CS(=O)(=O)c2ccc(Cl)cc2)COC2(CCCCC2)OO1 (stereo not drawn) [8i, 3-(4-Chloro-benzenesulfonylmethyl)-3-methyl-1,2,5-trioxa-spiro[5.5]undecane] | 86 to 87 | 35 | –
8 | CC1(CS(=O)(=O)c2ccccc2)COC2(CCC(C(C)(C)C)CC2)OO1 (stereo not drawn) [8g, 3-Benzenesulfonylmethyl-9-tert-butyl-3-methyl-1,2,5-trioxa-spiro[5.5]undecane] | 154 | – | –
9 | C[C@@H]1CC[C@H]2[C@@H](C)C(=O)O[C@@H]3O[C@@]4(C)CC[C@@H]1[C@]32OO4 [Artemisinin, reference compound] | – | 12 | –
10 | CCN(CC)CCCC(C)Nc1ccnc2cc(Cl)ccc12 (stereo not drawn) [Chloroquine, reference compound] | – | – | 210
11 | CC1(CSc2ccccc2)COC2(OO1)C1CC3CC(C1)CC2C3 (stereo not drawn) [4f, Adamantyl Trioxane] | – | 285 | –
12 | CC1(CSc2ccccc2)COC2(CCC2)OO1 (stereo not drawn) [4e, 7-Methyl-7-phenylsulfanylmethyl-5,6,9-trioxa-spiro[3.5]nonane] | – | 314 | –
13 | CC1(CS(=O)(=O)c2ccccc2)COC2(CCC(=O)CC2)OO1 (stereo not drawn) [8h, 3-Benzenesulfonylmethyl-3-methyl-1,2,5-trioxa-spiro[5.5]undecan-9-one] | 96 | – | –
14 | CC1(CSc2ccc(Cl)cc2)COC2(CCCCCCCCCCC2)OO1 (stereo not drawn) [4k, 3-(4-Chloro-phenylsulfanylmethyl)-3-methyl-1,2,5-trioxa-spiro[5.11]heptadecane] | 93 to 94 | – | –
15 | CC1(CS(=O)(=O)c2ccccc2)COC2(CCCCC2)OO1 (stereo not drawn) [8c, 3-Benzenesulfonylmethyl-3-methyl-1,2,5-trioxa-spiro[5.5]undecane] | 88 to 89 | – | –
